The structures appear in SMILES notation.

Assay [1] has as its target T1, PARP (Homo sapiens, UniProt P09874).
T1 construct: endogenous in cells; host or cells: HT1080
Put plainly: In vitro cellular MFAM imaging of drug target engagement in live cells. It counts as cell-based. As to the method: HT1080 cells (ATCC) stably expressing H2B mApple fluorescent protein were cultured in DMEM with 10% FBS, 1% pen-strep and 100 μg/ml geneticin (Invitrogen). HT1080 cells were cultured in DMEM with 10% FBS and 1% pen-strep. […] Cells were plated onto 25 mm #1 cover glass for in vitro imaging.
Cells on 25 mm cover glass were mounted into a closed bath perfusion chamber (Warner Instruments) and perfused with a custom perfusion system that enabled solution switching in the imaging chamber. Cells were imaged in phenol red-free DMEM with 10% FBS and 1% pen-strep. AZD2281-BODIPY FL (1 μM) was perfused into the imaging chamber followed by a washout with drug free media. Images were obtained during the entire time interval at regular time points. For competition experiments, free AZD2281 (5 μM) (Selleck Chemicals) was added to the incubating solution before during and after AZD2281-BODIPY FL addition. Me5-BODIPY was used for fluorophore control experiments.
(§1) Images were analyzed in Matlab (Mathworks) and ImageJ. All anisotropy measurements were calculated from the equation r=(I∥−I⊥)/(I∥+2I⊥). The detector noise of the two photodetectors was subtracted from the whole images before the data were processed. Fluorescence images represent the denominator of the anisotropy equation, which represents the entire fluorescence from the sample. Anisotropy values were obtained by defining a region of interest and measuring the average anisotropy within that region. Regions were extended to fluorescent images to calculate the corresponding intensity. […]

The target in assay [2] is T2, PARP1 (Homo sapiens, UniProt P09874). Put plainly: FLIM fluorescence lifetime upon binding to PARP1 in vitro. Here is the method:
Fluorescence lifetime imaging was performed using a Zeiss 710 confocal NLO laser scanning system on an upright Zeiss Examiner stand with a 40×NA 1.1 water immersion LD CApochromat objective and a Becker & Hickl TCSPC system. Two-photon excitation was achieved using a Coherent Chameleon Vision II tunable laser (680-1040 nm) that provided 140-femtosecond pulses at a 80-Mhz repetition rate with an output power of 3 W at the peak of the tuning curve (800 nm). Laser scanning was controlled by Zeiss Zen software and set to a pixel dwell time of 1.58 microseconds and 0.9-sec frame rate at 910 nm wavelength excitation.
Enhanced detection of the scattered component of the emitted (fluorescence) photons was afforded by the use of a Becker & Hickl HPM-100-40 hybrid detector, which incorporates the Hamamatsu R10467 hybrid PMT tube Imaging was performed in the dark with blackout enclosure around the microscope to exclude external sources of light during the sensitive period of FLIM measurement. Emitted fluorescence was deflected to the non-descanned light path via a 760+ mirror and emission range was limited to 500-550 nm by a Chroma filter in front of the HPM-100-40 detector. […]
where r0 is the fundamental anisotropy of the dye-dependent on the orientation of the excitation and emission dipole moments. […] The fluorescent microspheres (100% and 30%) had the same fluorescence lifetime, 3.6±0.3 nsec. […]

For assay [3], the target named is T2, PARP1. Put plainly: MFAM fluorescence anisotropy of free vs PARP1-bound AZD2281-BODIPY FL in solution. It counts as binding. The settings on record: PARP1 at 1.6x of 5 μM probe, imaging media with 2.5% FBS. Here is the method: AZD2281 labeled with BODIPY FL (AZD2281-BODIPY FL) was prepared as previously described (see Thurber, G. M. et al., Single-cell and subcellular pharmacokinetic imaging allows insight into drug action in vivo, Nat Commun, 4, 1504, (2013), for example). PARP1 (BioVision) was brought up in the manufactures recommended solution and added at 1.6× the concentration of AZD2281-BODIPY FL (5 μM) in imaging media containing 2.5% FBS. Free AZD2281-BODIPY FL (5 μM) (no PARP) in the same imaging media with 2.5% FBS and in DMSO solutions were also made. Images were taken of drops of solution between cover glass.
as §1
On the technique in general: Polarisation of emitted light reports the rotation of a fluorescent probe.

Assay [4] deals with PARP. Nature of the assay: In vivo MFAM imaging of drug target engagement in HT1080 tumor, mouse dorsal skinfold window chamber. Here is the method: All animal experiments were performed in accordance with the Institutional Animal Care and Use Committee at Massachusetts General Hospital. Female 20-weeks old nude mice (Cox-7, Massachusetts General Hospital) were used. All surgical procedures were conducted under sterile conditions and facilitated through the use of a zoom stereomicroscope (Olympus SZ61). During all surgical procedures and imaging experiments mice were anesthetized by isofluorane vaporization (Harvard Apparatus) at a flow rate of […]: 2 L/minute oxygen. The body temperature of the mice was kept constant at 37° C. during all imaging experiments and surgical procedures. Dorsal skinfold window chambers (DSC) were implanted one day prior to imaging following a well-established protocol. Briefly, the two layers of skin on the back of the mouse were stretched and kept in place by the DSC. One skin layer was surgically removed and replaced by a 12-mm diameter glass cover slip positioned on one side of the DSC allowing for convenient access and imaging of the tumor area. A spacer located on the DSC prevented excessive compression of both tissue and vessel guaranteeing good vascularperfusion within the tumor region.
HT1080 H2B mApple cells were harvested by trypsinization (0.25% trypsin:EDTA) and resuspended in PBS. […]

For a further assay, the target named is T3, NeutrAvidin (Gallus gallus, UniProt P02701).
T3 construct: purchased Thermo Scientific
Nature of the assay: Biotin-BODIPY and NeutrAvidin binding by MFAM anisotropy. The following applies: 10x unlabeled biotin (100 μM). As to the method:
Biotin was conjugated to Me5-BODIPY (Biotin-BODIPY) and brought to 1 mM stock solution in DMSO. Biotin-BODIPY (10 μM) was mixed with varying concentrations of NeutrAvidin (Thermo Scientific) in PBS with 1% Triton X (Sigma). Each sample was imaged in triplicate as a drop between a microscope slide and cover glass. Measurements of each sample were also performed using single photon excitation in a plate reader. Measurements were also made in the presence of 100 μM free Biotin to competitively compete with the Biotin-BODIPY.

T1 sequence (P09874 2-1014): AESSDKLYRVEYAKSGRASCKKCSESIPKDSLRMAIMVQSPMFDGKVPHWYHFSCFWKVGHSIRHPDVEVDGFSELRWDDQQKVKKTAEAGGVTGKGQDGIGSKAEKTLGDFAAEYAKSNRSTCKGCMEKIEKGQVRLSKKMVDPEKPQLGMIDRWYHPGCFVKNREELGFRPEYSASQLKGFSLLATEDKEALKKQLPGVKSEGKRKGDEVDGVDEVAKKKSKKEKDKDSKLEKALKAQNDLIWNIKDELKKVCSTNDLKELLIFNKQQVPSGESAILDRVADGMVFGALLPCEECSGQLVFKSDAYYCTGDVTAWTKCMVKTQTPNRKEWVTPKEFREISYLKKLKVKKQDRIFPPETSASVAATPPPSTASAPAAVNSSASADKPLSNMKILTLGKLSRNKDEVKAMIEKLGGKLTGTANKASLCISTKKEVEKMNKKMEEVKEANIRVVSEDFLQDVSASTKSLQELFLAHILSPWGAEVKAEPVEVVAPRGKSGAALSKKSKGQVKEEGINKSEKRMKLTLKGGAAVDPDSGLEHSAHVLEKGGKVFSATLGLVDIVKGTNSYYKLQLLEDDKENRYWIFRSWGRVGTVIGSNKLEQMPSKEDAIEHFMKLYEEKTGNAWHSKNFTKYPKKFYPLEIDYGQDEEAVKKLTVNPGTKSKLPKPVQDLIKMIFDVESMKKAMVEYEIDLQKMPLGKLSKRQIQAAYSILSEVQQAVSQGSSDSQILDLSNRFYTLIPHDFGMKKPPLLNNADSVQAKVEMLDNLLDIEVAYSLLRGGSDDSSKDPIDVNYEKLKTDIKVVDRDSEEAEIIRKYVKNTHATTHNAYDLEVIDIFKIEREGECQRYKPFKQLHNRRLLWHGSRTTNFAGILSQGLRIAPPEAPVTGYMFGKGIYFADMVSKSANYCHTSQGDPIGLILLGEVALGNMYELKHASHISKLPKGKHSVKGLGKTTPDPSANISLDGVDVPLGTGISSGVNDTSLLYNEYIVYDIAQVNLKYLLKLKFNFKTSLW
T2 sequence (P09874 whole entry): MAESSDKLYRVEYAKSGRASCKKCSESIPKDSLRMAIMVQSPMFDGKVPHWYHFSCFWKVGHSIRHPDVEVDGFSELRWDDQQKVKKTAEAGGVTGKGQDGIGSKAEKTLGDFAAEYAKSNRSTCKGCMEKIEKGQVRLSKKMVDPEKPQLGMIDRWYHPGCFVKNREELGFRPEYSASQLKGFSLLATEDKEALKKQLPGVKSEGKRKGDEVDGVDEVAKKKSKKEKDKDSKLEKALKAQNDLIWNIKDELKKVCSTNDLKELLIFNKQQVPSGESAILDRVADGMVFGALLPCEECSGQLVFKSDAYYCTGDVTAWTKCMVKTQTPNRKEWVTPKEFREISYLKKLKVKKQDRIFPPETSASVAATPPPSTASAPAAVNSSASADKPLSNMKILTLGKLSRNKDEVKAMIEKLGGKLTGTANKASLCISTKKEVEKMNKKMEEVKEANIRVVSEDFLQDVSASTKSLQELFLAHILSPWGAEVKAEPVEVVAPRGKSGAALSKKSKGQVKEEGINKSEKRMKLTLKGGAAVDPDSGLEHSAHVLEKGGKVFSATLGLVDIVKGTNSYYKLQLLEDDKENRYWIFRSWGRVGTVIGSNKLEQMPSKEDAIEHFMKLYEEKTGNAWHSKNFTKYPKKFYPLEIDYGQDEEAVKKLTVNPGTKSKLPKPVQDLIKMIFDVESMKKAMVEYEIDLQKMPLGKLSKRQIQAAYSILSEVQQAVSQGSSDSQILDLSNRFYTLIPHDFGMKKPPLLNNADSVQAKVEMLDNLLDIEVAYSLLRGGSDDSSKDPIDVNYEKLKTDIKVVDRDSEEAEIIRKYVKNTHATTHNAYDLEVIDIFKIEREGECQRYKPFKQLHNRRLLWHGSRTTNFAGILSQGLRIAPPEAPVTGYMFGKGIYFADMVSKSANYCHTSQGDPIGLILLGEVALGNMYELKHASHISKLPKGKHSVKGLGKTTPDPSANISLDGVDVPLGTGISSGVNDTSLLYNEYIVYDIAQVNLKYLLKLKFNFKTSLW
T3 sequence (P02701 25-152): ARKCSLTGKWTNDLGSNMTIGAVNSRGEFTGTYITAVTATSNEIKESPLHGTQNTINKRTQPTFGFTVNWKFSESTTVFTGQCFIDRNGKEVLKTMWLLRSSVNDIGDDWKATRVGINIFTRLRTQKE

With `Cc1cc(C)n2c1C=C1C=CC(CCC(=O)N3CCN(C(=O)c4cc(Cc5n[nH]c(=O)c6ccccc56)ccc4F)CC3)=[N+]1[B-]2(F)F` [AZD2281-BODIPY FL], the “localisation of bound drug (high anisotropy)” value at PARP [1] (HT1080 cells incubated with probe) is on record as “bound drug was present in the nucleus”. For the same compound, the “bound drug after extended washing cycles” value on PARP [1] (HT1080 cells, after washing) is on record as “the nuclear, bound drug remains”. On PARP [1] (HT1080 cells, loading and washing), the “target binding in the cytoplasm” value was “no target binding”. Also, the fluorescence lifetime at PARP1 [2] (bound to PARP1) turned out to be 3.3±0.3 nsec; on PARP1 [2] (unbound), 4.1±0.3 nsec. The “anisotropy of target-bound over free or intracellular drug” value on PARP1 [3] was “significant increase in anisotropy”. Also, the “nuclear anisotropy over time in vivo” value in the assay on PARP [4] (after intravenous infusion vs 34 minutes later) is “the nuclear anisotropy increased”. Besides, the “binding to PARP in the nucleus in vivo” value in the assay on PARP [4] (intravenous, implanted HT1080 H2B mApple tumor) is listed as “occurred immediately upon drug infusion”.
As for `O=C(O)CCCC[C@@H]1SC[C@@H]2NC(=O)N[C@@H]21` [biotin], on NeutrAvidin, the “anisotropy increase of Biotin-BODIPY in presence of unlabeled competitor” value is given as “suppressed”.

The values are drawn from patent publication US20190072562A1, “SYSTEM AND METHOD FOR DETERMINATION OF LIGAND-TARGET BINDING BY MULTI-PHOTON FLUORESCENCE ANISOTROPY MICROSCOPY” (THE GENERAL HOSPITAL CORPORATION, priority 2014, published 2019).
